Measured values reported in PubChem BioAssay (NCI).
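48-hour exposure; five concentrations; linearly interpolated endpoints. TGI denotes the concentration required for complete inhibition of growth.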

Key:
Test in all cases: NCI-60 cell line screen, 48 h
[1] = system: LOX IMVI melanoma
[2] = system: ACHN renal
[3] = system: NCI-H226 lung
[4] = system: SN12C renal
[5] = system: HCT-15 colon
[6] = system: SF-295 CNS
[7] = system: MDA-MB-231 breast
[8] = system: MCF7 breast
[9] = system: OVCAR-3 ovarian
[10] = system: SF-268 CNS

Row | Structure (SMILES) | TGI [1] [µM] | TGI [2] [µM] | TGI [3] [µM] | TGI [4] [µM] | TGI [5] [µM] | TGI [6] [µM] | TGI [7] [µM] | TGI [8] [µM] | TGI [9] [µM] | TGI [10] [µM]
1 | Cc1ccc(-c2c(C#N)c(S)n(NS(=O)(=O)c3ccc(C)cc3)c(=O)c2C#N)cc1 | > 100 | 49.8 | 39.6 | > 100 | 40.4 | 51.3 | > 100 | > 100 | > 100 | –
2 | Nc1c(-c2nc3ccccc3s2)c2ccc([N+](=O)[O-])cc2c(=O)n1-c1cccc(C(=O)O)c1 | > 100 | > 100 | 71.5 | 84.2 | > 100 | – | 37.8 | – | – | > 100
3 | CC(C)(C)c1ccc(-c2nc3ccc([N+](=O)[O-])cc3c(=O)o2)cc1 | 29.9 | 90.5 | – | > 100 | 73.4 | 76.4 | 66 | 89.2 | 81.1 | > 100
4 | CC1=C2c3c(C)ccc4ccc(C)c(c34)C2(O)C(C)C1=O (centres undefined) | > 100 | > 100 | > 100 | > 100 | > 100 | – | > 100 | > 100 | > 100 | > 100
5 | CC1CC[C@@]2(OC1)OC1C[C@H]3[C@@H]4C/C(=N\N(C)C)[C@@]5(O)CC(O)CC[C@]5(C)[C@H]4CC[C@]3(C)C1[C@@H]2C (some centres undefined) | > 100 | > 100 | > 100 | > 100 | > 100 | – | > 100 | > 100 | > 100 | > 100
6 | NC(=O)N1N=C2c3ccccc3CC[C@@H]2C1c1ccccc1 (some centres undefined) | > 100 | > 100 | > 100 | > 100 | > 100 | > 100 | – | – | > 100 | > 100
7 | COC(=O)C1(Cc2ccc3c(c2)CCC3)Cc2ccc3c(c2C1O)CCC3 (centres undefined) | 26.2 | 26.7 | 45 | 28.5 | – | 42.4 | 29.4 | 26.9 | 27.7 | 69.8
8 | COc1cc(-c2oc3c(OC)c(O)c(OC)c(O)c3c(=O)c2OC)cc(O)c1OC | > 100 | > 100 | > 100 | > 100 | > 100 | 53.6 | > 100 | > 100 | 63.3 | –
9 | Cc1cccc2c1Oc1cc(Cl)ccc1C2NC(=O)CCN1CCN(CCO)CC1 (centres undefined) | 9.7 | – | – | 28.7 | 34.1 | 33 | 14.6 | 30.3 | 34 | > 100
10 | O=C1CN2Cc3cc(N4CCOCC4)ccc3N=C2N1 | > 100 | – | > 100 | > 100 | > 100 | > 100 | > 100 | > 100 | > 100 | –
11 | N#CCCN(CCC#N)c1ccc(C(N=Nc2ccccc2)=Nc2ccccc2)cc1 | – | > 100 | > 100 | > 100 | > 100 | > 100 | > 100 | > 100 | > 100 | > 100
12 | COc1cccc(NC(=S)Nn2c(C)nc3ccccc3c2=O)c1 | > 100 | > 100 | > 100 | > 100 | > 100 | > 100 | – | – | – | > 100
13 | CCCn1c(SCC)c2ccccc2c1-c1nc(F)nc(F)n1 | > 100 | > 100 | > 100 | > 100 | > 100 | > 100 | – | – | > 100 | > 100
14 | O=C1/C(=C\c2cccc(Oc3ccccc3)c2)S(=O)(=O)C(c2ccccc2)N1c1ccc(Cl)cc1 (centres undefined) | 27.8 | 36.9 | > 100 | 29 | 32.8 | 41.2 | 34.7 | 62.9 | 32.7 | –
15 | CC(OC(=O)NCn1cc(-c2ccccc2)nn1)c1ccccc1 (centres undefined) | > 100 | > 100 | 56.4 | > 100 | > 100 | > 100 | > 100 | > 100 | – | –
16 | O=C(/C=C/c1ccc(Cl)cc1)Oc1ccc(/C=C2\CCCCC2=O)cc1 | > 100 | > 100 | – | > 100 | > 100 | > 100 | > 100 | > 100 | > 100 | > 100
17 | COC1=CC(=O)[C@H]2[C@H](C)C(c3ccccc3)[C@@]2(C)C1=O (some centres undefined) | > 100 | > 100 | – | – | > 100 | > 100 | – | – | > 100 | > 100
18 | O=C1CCC[C@]2(CCC[C@@H](O)C2)N1 | > 100 | > 100 | – | > 100 | > 100 | > 100 | > 100 | > 100 | > 100 | > 100
19 | COC(=O)C1=C(C(=O)OC)C2(OC(C)=O)c3ccccc3-c3ccccc3C12 (centres undefined) | 9.51 | 6.48 | 31.2 | 9.28 | 10.3 | 33 | – | – | 9.94 | 22
20 | N#Cc1c(-c2ccco2)cc(-c2ccc(NCc3nc4ccccc4[nH]3)cc2)nc1N | 32.7 | > 100 | – | 59.6 | 69.2 | 52.3 | – | – | 41.8 | > 100
21 | COc1cc2c(c(C)c1O)[C@H]1COc3ccccc3[C@H]1O2 | 14.7 | > 100 | 34.5 | – | 18.5 | > 100 | – | – | > 100 | 96.1
22 | CC1(C)CC(=O)C2=C(C1)c1c(ccc3ccccc13)NC2c1cn(Cc2ccc(Cl)cc2)c2ccccc12 (centres undefined) | > 100 | > 100 | – | > 100 | > 100 | > 100 | > 100 | > 100 | > 100 | > 100
23 | O=c1oc2ccccc2c(O)c1C(c1ccco1)c1c(O)c2ccccc2oc1=O | 61.1 | 55.8 | > 100 | 63.1 | 41.4 | – | 36 | – | > 100 | 79.8
